One compound from patent US9907783B2, “Methods of treating skin conditions using cyclolignan compounds” (m. Alphabet 2, L.L.C., priority 2013, dated 2018) can be followed below.

This experiment concerns actinic keratoses. As to the kind of experiment: Randomized, blinded patient study of topical picropodophyllin solution for actinic keratoses (lesion count in treatment area). It counts as in vivo, patients. The note with it: topical twice daily for 1 week. The protocol: To date, 56 patients have been studied to determine the efficacy of picropodophyllin in treating actinic keratoses. The patients were randomized into four groups, and the patients in each group were treated with a solution containing either 0.5%, 1.25%, or 2.0% picropodophyllin (w/v) in propylene glycol, or a placebo constituting only the vehicle propylene glycol. The picropodophyllin solution was prepared in 100% propylene glycol solution. The solutions were prepared aseptically following GMP protocols. The affected areas of the body variously included the scalp, face, arms, and legs. Without knowing which one of the four solutions they were applying, the subjects self-applied one of the solutions to the skin. After initial application, the subjects gently massaged the solutions into their skin. This was done twice daily for 1 week. Lesions (actinic keratosis) were palpated and visualized by a trained lesion counter who is a board certified dermatologist. The same investigator evaluated each subject at each visit for consistency. The subjects were evaluated at baseline, day 3, day 7, day 14, day 28, day 56 and day 90. Within the treatment area, the number of lesions were counted, regardless of their size. The change in the number of lesions (% decline from baseline) within the treatment area was calculated and the results are shown in the table below: […]

Regarding `COc1cc([C@@H]2c3cc4c(cc3[C@H](O)[C@H]3COC(=O)[C@@H]23)OCO4)cc(OC)c1OC` [PPP, picropodophyllin], the “% Decline from Baseline (number of lesions in treatment area)” value reads like this: (0.50% PPP w/v in propylene glycol, 28 days) −56^AB %; (0.50% PPP w/v in propylene glycol, 56 days) −82^AB %; (0.50% PPP w/v in propylene glycol, 90 days) −90^AB %; (1.25% PPP w/v in propylene glycol, 28 days) −53^AB %; (1.25% PPP w/v in propylene glycol, 56 days) −73^AB %; (1.25% PPP w/v in propylene glycol, 90 days) −65^AB %. Also, the “% Decline from Baseline (number of lesions in treatment area)” value was −17% (2.00% PPP w/v in propylene glycol, 28 days); −55^AB % (2.00% PPP w/v in propylene glycol, 56 days); −84^AB % (2.00% PPP w/v in propylene glycol, 90 days).
